Experimental data taken from patent publication US20240408067A1, “SOLID STATE FORMS OF NIROGACESTAT SALTS” (TEVA PHARMACEUTICALS INTERNATIONAL GMBH, priority 2021, published 2024).
Structures can show the parent of a compound that is named as a salt.

Tests used:
Format in all cases: physicochemical
[1] = Storage stability at different relative humidities, ambient temperature, 7 days (XRPD)
Method: (§1) X-ray diffraction was performed on X-Ray powder diffractometer: Bruker D8 Advance; CuKα radiation (λ=1.5418 Å); Lynx eye detector; laboratory temperature 22-25° C.; PMMA specimen holder ring with silicon low background. Prior to analysis, the samples were gently ground by means of mortar and pestle in order to obtain a fine powder. The ground sample was adjusted into a cavity of the sample holder and the surface of the sample was smoothed by means of a cover glass. • Scan range: 2-40 degrees 2-theta; • Scan mode: continuous; • Step size: 0.05 degrees; • Time per step: 0.5 s; • Sample spin: 30 rpm; • Sample holder: PMMA specimen holder ring with silicon low background. Samples of Nirogacestat dihydrobromide Form NT1 and Nirogacestat hydrobromide Form NHBr1 were subjected to conditions of different relative humidity at ambient temperature. XRPD analysis was performed on the samples after 7 days.

[2] = Storage stability at different relative humidity and temperatures, 6 months (XRPD); settings: for XRPD analysis results, 25° C., 60% RH / XRPD analysis results, 40° C., 75% RH: 6 months
Method: as §1, with “NT1” for “NT1 and Nirogacestat hydrobromide Form NHBr1”, “different temperatures.” for “ambient temperature.”, “6 months.” for “7 days.”

[3] = Grinding experiments (strong grinding, solvent drop grinding; XRPD); settings: for XRPD analysis results, strong grinding: about 20 mg ground with a pestle for 2 minutes, sample alone; for Stability to solvent drop grinding: isopropanol or no solvent
Method: X-ray diffraction was performed on X-Ray powder diffractometer: Bruker D8 Advance; CuKα radiation (λ=1.5418 Å); Lynx eye detector; laboratory temperature 22-25° C.; PMMA specimen holder ring with silicon low background. Prior to analysis, the samples were gently ground by means of mortar and pestle in order to obtain a fine powder. The ground sample was adjusted into a cavity of the sample holder and the surface of the sample was smoothed by means of a cover glass. • Scan range: 2-40 degrees 2-theta; • Scan mode: continuous; • Step size: 0.05 degrees; • Time per step: 0.5 s; • Sample spin: 30 rpm; • Sample holder: PMMA specimen holder ring with silicon low background. […] […] In these experiments, about 20 mg of the sample is placed in a mortar and ground with a pestle for 2 minutes. The solvent, when used, was added to the crystalline material before grinding, in a volume of 10 microlitres. XRPD analysis performed on the sample after the grinding experiment, confirmed no change in the starting material (Table 3):

[4] = Thermal stability, heating up to 100° C. (XRPD); settings: heating up to 100° C. for 30 minutes
Method: as §1, with “to heating up to 100° C. for 30 minutes.” for “to conditions of different relative humidity at ambient temperature.”, “analysis of” for “analysis was performed on”, “the sample confirmed there to be no change in the starting material (Table 4): […]” for “the samples after 7 days.”

[5] = Stability under pressure of 2 tons
[6] = listed as Form NT1, dihydrobromide salt
[7] = listed as Nirogacestat dihydrobromide Form NT1, dihydrobromide salt
[8] = listed as Form NT1 of Nirogacestat dihydrobromide, dihydrobromide salt
[9] = listed as Nirogacestat dihydrobromide form NT1, dihydrobromide salt
[10] = listed as Form NHBr1 of Nirogacestat hydrobromide, hydrobromide salt
[11] = listed as Nirogacestat hydrobromide Form NHBr1, hydrobromide salt

Question: Which results are given for `CCC[C@H](N[C@H]1CCc2cc(F)cc(F)c2C1)C(=O)Nc1cn(C(C)(C)CNCC(C)(C)C)cn1` [Nirogacestat dihydrobromide salt]?
Answer: XRPD analysis results, relative humidity 20% ([1]; 20% RH, ambient temperature, 7 days, listed as Form NT1, dihydrobromide salt): stable; XRPD analysis results, relative humidity 40% ([1]; 40% RH, ambient temperature, 7 days, listed as Form NT1, dihydrobromide salt): stable; XRPD analysis results, relative humidity 60% ([1]; 60% RH, ambient temperature, 7 days, listed as Form NT1, dihydrobromide salt): stable; XRPD analysis results, relative humidity 80% ([1]; 80% RH, ambient temperature, 7 days, listed as Form NT1, dihydrobromide salt): stable; Stability after exposure to high and low relative humidity ([1]; at least 7 days, summary of Table 1): stable; XRPD analysis results, 25° C., 60% RH [2, 6]: stable; XRPD analysis results, 25° C., 60% RH [2, 7]: No change; XRPD analysis results, 40° C., 75% RH [2, 6]: stable; XRPD analysis results, 40° C., 75% RH [2, 7]: No change; Stability after exposure to high and low relative humidity at different temperatures ([2]; at least 6 months, summary of Table 2): stable; XRPD analysis results, strong grinding ([3]; dihydrobromide salt): No change; XRPD analysis results, strong grinding [3, 8]: stable; XRPD analysis results, strong grinding [3, 7]: no change; XRPD analysis results, strong grinding [3, 9]: stable; XRPD analysis results, solvent-drop grinding (ethanol) ([3]; ground 2 minutes, 10 microlitres solvent, ethanol): No change; XRPD analysis results, solvent-drop grinding (water) ([3]; ground 2 minutes, 10 microlitres solvent, water): No change; Stability to solvent drop grinding [3, 7]: no change; Stability to solvent drop grinding [3, 9]: stable; Resistance to polymorphic changes on grinding ([3]; summary of Table 3): resistant to polymorphic changes; Result, heating 100° C., 30 minutes ([4]; dihydrobromide salt): Stable; Result, heating 100° C., 30 minutes [4, 8]: stable; Result, heating 100° C., 30 minutes [4, 7]: no change; Result, heating 100° C., 30 minutes [4, 9]: stable; Stability under pressure [5]: stable

Question: For `CCC[C@H](N[C@H]1CCc2cc(F)cc(F)c2C1)C(=O)Nc1cn(C(C)(C)CNCC(C)(C)C)cn1` [Nirogacestat hydrobromide salt], which “XRPD analysis results, strong grinding” value ([3]; hydrobromide salt) is on record?
Answer: No change

Question: What about the “XRPD analysis results, strong grinding” value [3, 10] of the same molecule?
Answer: stable

Question: And the “XRPD analysis results, strong grinding” value [3, 11]?
Answer: no change

Question: And the “Stability to solvent drop grinding” value [3, 11]?
Answer: no change

Question: What about the “Result, heating 100° C., 30 minutes” value ([4]; hydrobromide salt) of the same molecule?
Answer: Stable

Question: And the “Result, heating 100° C., 30 minutes” value [4, 10]?
Answer: stable

Question: And the “Result, heating 100° C., 30 minutes” value [4, 11]?
Answer: no change
